# Assay results reported in paper PMC8360007, “Stereoselective Access to Antimelanoma Agents by Hybridization and Dimerization of Dihydroartemisinin and Artesunic acid” (Chemmedchem, 2021).
# Like-named read-outs stand apart in the source and are kept apart here.
# Key:
# [1] = MTT cell viability (cytotoxicity) on normal human primary fibroblast C3PV; format: cell-based
# Protocol: (§1) The anticancer‐activity of DHA and ART hybrids 7‐β, 12‐β, 13‐α, 14‐α, 15‐α, and 16‐α, and of DHA and ART dimers 17‐α,α, 18‐α,α, 19‐β,β, 20‐α,α, 21‐α,α and 22‐α,α, was evaluated by the cell survival MTT assay on metastatic melanoma cancer cell line RPMI7951. Artemisinin 1, DHA 2, ART 3, hybrids 5–7, dimer 8, and commercially available drug paclitaxel (Taxol) were used as reference. In addition, data were compared with experiments performed on normal human primary fibroblast cell line (C3PV). Table 1 reports the IC50 (half‐maximal inhibitory concentration) and CC50 (half‐maximal cytotoxic concentration) values of the tested compounds.
# (§2) The primary human fibroblast C3PV cell line was treated according to Botta et al.[27] Metastatic melanoma cell line (RPMI7951) was grown in Eagle's Minimum Essential Medium (EMEM) containing 15 % and 10 % FBS respectively, in addition to penicillin (100 U/ml) and streptomycin (1 mg/ml). The cell lines were maintained at 37 °C in a humidified atmosphere (95 %) in the presence of 5.0 % CO2. Prostate cancer (PC3) and breast cancer (MDA‐MB‐231) cell lines were raised in DMEM/F12 and RMPI1640 medium, respectively. To the medium was added 10 % FBS, 1 mM Glutammine and 40 μg/ml of Gentamicin. All cell lines were mantained at 37 °C in a humidified atmosphere (95 %) in the presence of 5.0 of CO2.
# (§3) To study the effect of artemisinin and its derivatives on cell viability C3PV, RPMI7951, PC3, MDA‐MB‐231 cell lines were seeded in 96‐well plates (6000 cells/well in 100 μl medium) and incubated overnight to allow cell adherence. After, the medium was replaced with fresh medium containing the appropriate dose of compound. […] The analyses of cell viability were done at the end of treatment. The assays were performed in quadruplicate for both treatments.
# (§4) The CC50 and IC50 values were determined by non‐linear regression using the program graphpad prism 6.
# (§5) Cell viability was evaluated using MTT cell proliferation assay. Briefly, after incubation for 3 h at 37 °C with MTT (0.5 mg/ml) the supernatant was replaced with 100 μl of a lysis solution containing 10 % SDS, 0.6 % Acetic acid in DMSO to dissolve the formazan crystals. Optical density measurements were performed with a scanning spectrophotometer DTX880 Multimode Detector (Beckman Coulter) using a 630 nm (background) and a 570 nm filter.
# [2] = tested on: metastatic melanoma cancer cell line RPMI7951; assay: cell survival MTT assay on metastatic melanoma cancer cell line RPMI7951; format: cell-based; conditions: Homo sapiens, RPMI-7951, read-out: IC50±SD RPMI7951
# Protocol: as §1, §2
# To study the effect of artemisinin and its derivatives on cell viability C3PV, RPMI7951, PC3, MDA‐MB‐231 cell lines were seeded in 96‐well plates (6000 cells/well in 100 μl medium) and incubated overnight to allow cell adherence. After, the medium was replaced with fresh medium containing the appropriate dose of compound. Artemisinin and its derivatives were used in a range of […] for 24 h. The analyses of cell viability were done at the end of treatment. […]
# as §4, §5
# [3] = MTT cell viability (cytotoxicity) on normal human primary fibroblast C3PV; format: cell-based; conditions: C3PV normal primary fibroblast cells, 24 h treatment, triplicate, read-out: CC50±SD C3PV
# [4] = tested on: human breast (MDA‐MB‐231) cancer cell line; assay: MTT cell viability on breast cancer MDA‐MB‐231 cell line; format: cell-based; conditions: triplicate, read-out: IC50±SD MDA‐MB‐231
# Protocol: (§6) The effect of dimers 20–22‐α,α was further evaluated against other tumour types, such as human prostate and breast cancers in PC3 and MDA‐MB‐231 cell lines, respectively (Table 2).
# as §2, §3, §5
# [5] = tested on: human prostate (PC3) cancer cell line; assay: MTT cell viability on prostate cancer PC3 cell line; format: cell-based; conditions: PC-3, triplicate, read-out: IC50±SD PC3
# Protocol: as §6, §2, §3, §5
# [6] = tested on: normal human primary fibroblast cell line (C3PV); parameters: method as in PMID 31956771; conditions: cytotoxicity data from ref. 12; read-out: CC50±SD C3PV; cited from earlier work
# [7] = tested on: metastatic melanoma cancer cell line RPMI7951; parameters: method as in PMID 31956771; conditions: cited from earlier work
# [8] = stability in assay medium by HPLC; format: physicochemical; conditions: 24 and 48 hours, 25 °C, pH=7, in comparison with artesunic acid 3
# [9] = MTT, 24 h treatment, triplicate
# [10] = antimelanoma data from ref. 12, read-out: IC50±SD RPMI7951
Compound,CC50 at 24 h [1],"IC50 [2, 9]",also measured
CC1CCC2C(C)C(Oc3ccc(CCO)cc3)OC3OC4(C)CCC1C32OO4 (stereo not drawn) [7‐β],1140 ± 450 nM,200 ± 10 nM,–
CC1CCC2C(C)C(OCCc3ccc(O)cc3)OC3OC4(C)CCC1C32OO4 (stereo not drawn) [12‐β],38200 ± 2560 nM,400 ± 30 nM,–
C[C@H]1[C@H](OC(=O)CCC(=O)NCCc2ccc(O)cc2)O[C@@H]2O[C@@]3(C)CC[C@H]4[C@H](C)CC[C@@H]1[C@@]24OO3 [13‐α],3390 ± 50 nM,1700 ± 30 nM,–
COC(=O)C(Cc1ccc(O)cc1)NC(=O)CCC(=O)O[C@@H]1O[C@@H]2O[C@@]3(C)CC[C@H]4[C@H](C)CC[C@@H]([C@H]1C)[C@@]24OO3 (stereo partly drawn) [14‐α],6380 ± 1500 nM,1300 ± 70 nM,–
C[C@H]1[C@H](OC(=O)CCC(=O)Oc2ccc(CO)cc2)O[C@@H]2O[C@@]3(C)CC[C@H]4[C@H](C)CC[C@@H]1[C@@]24OO3 [15‐α],55200 ± 7330 nM,2500 ± 50 nM,–
C[C@H]1[C@H](OC(=O)c2ccccc2C(=O)O)O[C@@H]2O[C@@]3(C)CC[C@H]4[C@H](C)CC[C@@H]1[C@@]24OO3 [16‐α],8140 ± 850 nM,4600 ± 30 nM,–
"C[C@H]1[C@H](OC(=O)CCC(=O)O[C@@H]2O[C@@H]3O[C@@]4(C)CC[C@H]5[C@H](C)CC[C@@H]([C@H]2C)[C@@]35OO4)O[C@@H]2O[C@@]3(C)CC[C@H]4[C@H](C)CC[C@@H]1[C@@]24OO3 [17‐α,α]",–,70 ± 10 nM,CC50 at 24 h [3]: 250 ± 30 nM
"C[C@H]1[C@H](OC(=O)c2ccccc2C(=O)O[C@@H]2O[C@@H]3O[C@@]4(C)CC[C@H]5[C@H](C)CC[C@@H]([C@H]2C)[C@@]35OO4)O[C@@H]2O[C@@]3(C)CC[C@H]4[C@H](C)CC[C@@H]1[C@@]24OO3 [18‐α,α]",8000 ± 100 nM,10800 ± 1600 nM,–
"C[C@H]1[C@@H](OCCCCO[C@H]2O[C@@H]3O[C@@]4(C)CC[C@H]5[C@H](C)CC[C@@H]([C@H]2C)[C@@]35OO4)O[C@@H]2O[C@@]3(C)CC[C@H]4[C@H](C)CC[C@@H]1[C@@]24OO3 [19‐β,β]",5700 ± 790 nM,3600 ± 950 nM,–
"CC1CCC2C(C)C(OC(=O)CCC(=O)NCCc3ccc(OC(=O)CCC(=O)OC4OC5OC6(C)CCC7C(C)CCC(C4C)C57OO6)cc3)OC3OC4(C)CCC1C32OO4 (stereo not drawn) [20‐α,α]",228000 ± 1500 nM,2450 ± 50 nM,IC50 ([2]; in absence of DFO): 2450 ± 50 nM; IC50 [4]: 1300 ± 850 nM; IC50 [5]: 2300 ± 350 nM
"COC(=O)C(Cc1ccc(OC(=O)CCC(=O)OC2OC3OC4(C)CCC5C(C)CCC(C2C)C35OO4)cc1)NC(=O)CCC(=O)OC1OC2OC3(C)CCC4C(C)CCC(C1C)C24OO3 (stereo not drawn) [21‐α,α]",> 300000 nM,1760 ± 30 nM,IC50 ([2]; in absence of DFO): 1760 ± 30 nM; IC50 [4]: 3080 ± 850 nM; IC50 [5]: 3040 ± 340 nM
"C[C@@H]1CC[C@H]2[C@@H](C)C(=O)O[C@@H]3O[C@@]4(C)CC[C@@H]1[C@]32OO4 [Compound 1, artemisinin]",–,3620 ± 990 nM,CC50 at 24 h [3]: > 300000 nM
"C[C@H]1[C@@H](O)O[C@@H]2O[C@@]3(C)CC[C@H]4[C@H](C)CC[C@@H]1[C@@]24OO3 [Compound 2, dihydroartemisinin]",680 ± 190 nM,910 ± 450 nM,–
"C[C@H]1[C@H](OC(=O)CCC(=O)O)O[C@@H]2O[C@@]3(C)CC[C@H]4[C@H](C)CC[C@@H]1[C@@]24OO3 [Compound 3, artesunic acid]",–,1080 ± 560 nM,CC50 at 24 h [3]: 1680 ± 440 nM
C[C@@H]1CC[C@H]2[C@@H](C)C(OCCc3ccc(O)cc3)O[C@@H]3O[C@@]4(C)CC[C@@H]1[C@]32OO4 (stereo partly drawn) [Compound 5],–,–,"CC50 [6]: 1760 ± 310 nM; IC50 [7, 10]: 330 ± 80 nM"
C[C@@H]1CC[C@H]2[C@@H](C)C(OC(=O)CCC(=O)OCCc3ccc(O)cc3)O[C@@H]3O[C@@]4(C)CC[C@@H]1[C@]32OO4 (stereo partly drawn) [Compound 6],–,–,"CC50 [6]: > 300000 nM; IC50 [7, 10]: 8340 ± 3060 nM"
C[C@@H]1CC[C@H]2[C@@H](C)C(OC(=O)CCC(=O)Oc3ccc(CCO)cc3)O[C@@H]3O[C@@]4(C)CC[C@@H]1[C@]32OO4 (stereo partly drawn) [Compound 7],–,–,"CC50 [6]: 132000 ± 12600 nM; IC50 [7, 10]: 90 ± 30 nM"
CC1CCC2C(C)C(OC(=O)CCC(=O)OCCc3ccc(OC(=O)CCC(=O)OC4OC5OC6(C)CCC7C(C)CCC(C4C)C57OO6)cc3)OC3OC4(C)CCC1C32OO4 (stereo not drawn) [Compound 8],–,–,"CC50 [6]: 6100 ± 3740 nM; IC50 [7, 10]: 490 ± 50 nM; IC50 ([7]; introduction, earlier library, read-out: IC50 against RPMI‐7951 cell line): 1370 ± 130 nM"
"CC1CCC2C(C)C(OC(=O)CCC(=O)OCc3ccc(OC(=O)CCC(=O)OC4OC5OC6(C)CCC7C(C)CCC(C4C)C57OO6)cc3)OC3OC4(C)CCC1C32OO4 (stereo not drawn) [Compound 22‐α,α]",> 300000 nM,50 ± 20 nM,IC50 ([2]; in absence of DFO): 50 ± 20 nM; IC50 [4]: 2400 ± 950 nM; IC50 [5]: 3100 ± 190 nM; stability after exposition to assay medium (HPLC) [8]: good stability
"CC(=O)O[C@H]1C(=O)[C@@]2(C)[C@H]([C@H](OC(=O)c3ccccc3)[C@]3(O)C[C@H](OC(=O)[C@H](O)[C@@H](NC(=O)c4ccccc4)c4ccccc4)C(C)=C1C3(C)C)[C@]1(OC(C)=O)CO[C@@H]1C[C@@H]2O [Paclitaxel, paclitaxel, reference compound]",78900 ± 790 nM,13 nM,–
